The text below walks through data of PMC8698482, “WPK5, a Novel Kunitz-Type Peptide from the Leech Whitmania pigra Inhibiting Factor XIa, and Its Loop-Replaced Mutant to Improve Potency” (Biomedicines, 2021).

This experiment has as its system C57BL/6J mice. In words: FeCl3-induced carotid artery thrombosis model. The settings on record: heparin sodium 2.7 mg/kg by tail vein 10 min before 6% FeCl3; observed 30 min; n = 6. The experiment is classed as in vivo. The procedure:
The in vivo antithrombotic activity of WPK5-Mut was evaluated by using a FeCl3-induced carotid artery thrombosis model in mice. Mice (C57BL/6J, males, 18–22 g) were anesthetized by intraperitoneal injection of chloral hydrate (5%, 10 mL/kg) and then placed in a supine position on a heating pad (37 °C) to maintain body temperature. An incision was made in the middle of the mouse’s neck and the fascia and muscle were gradually separated to expose the carotid artery. A rubber strip (4 × 10 mm) was placed under the artery to separate it from the surrounding tissues, and mice were injected heparin sodium (2.7 mg/kg), WPK5-Mut (0.75, 1.5 and 3 mg/kg) or saline through the tail vein and placed under a laser speckle contrast imaging (moor FLPI-2, Moor Instruments Limited, Millwey, Axminster, Devon, EX13 5HU, UK) to observe the carotid blood flow. […] The occlusion time was defined as the time from the removal of the FeCl3 saturated filter paper to the blockage of the vessel for at least 3 consecutive min [44]. If a vessel is blocked at a certain time for 3 consecutive min, this time is recorded as occlusion time, and if no blockage occurs within 30 min, the occlusion time is recorded as 30 min. The blood flow was analyzed by moorFLPI ReviewV50 software.

Turning to heparin sodium, the occlusion time is above 30 min.
